Data reported in US20060178374A1, “Aminoheteroaryl compounds as protein kinase inhibitors” (AGOURON PHARMACEUTICALS, INC., priority 2004, published 2006).

Molecular target: HGFR (c-Met) (Homo sapiens, UniProt P08581)
Test: HGFR Continuous-Coupled Spectrophotometric Assay
Type: biochemical
Settings: for Ki: HGFR enzyme 50 nM, Met-2 peptide substrate, 37° C.; for inhibition at 1 µM: compound at 1 μM
Procedure: The general procedure is as follows: compounds and kinase assay reagents are introduced into test wells. The assay is initiated by addition of the kinase enzyme. Enzyme inhibitors reduce the measured activity of the enzyme.
In the continuous-coupled spectrophotometric assay the time-dependent production of ADP by the kinase is determined by analysis of the rate of consumption of NADH by measurement of the decrease in absorbance at 340 nm. As the PK produces ADP it is re-converted to ATP by reaction with phosphoenol pyruvate and pyruvate kinase. Pyruvate is also produced in this reaction. Pyruvate is subsequently converted to lactate by reaction with lactate dehydrogenase, which simultaneously converts NADH to NAD.
HGFR Continuous-Coupled Spectrophotometric Assay
This assay analyzes the tyrosine kinase activity of HGFR on the Met-2 substrate peptide, a peptide derived from the activation loop of the HGFR.
• 1. […] Dissolve up in 200 mM HEPES, pH 7.5 at 10 mM stock. • 3. 1 M PEP (phospho-enol-pyruvate) in 200 mM HEPES, pH 7.5 • 4. 100 mM NADH (B-Nicotinamide Adenine Dinucleotide, Reduced Form) in 200 mM HEPES, pH 7.5 • 5. 4 M MgCl2 (Magnesium Chloride) in ddH2O 6. 1 M DTT (Dithiothreitol) in 200 mM HEPES, pH 7.5 • 7. 15 Units/mL LDH (Lactic Dehydrogenase) • 8. 15 Units/mL PK (Pyruvate Kinase) • 9. 5M NaCl dissolved in ddH2O • 10. Tween-20 (Protein Grade) 10% Solution • 11. 1 M HEPES buffer: (N-[2-Hydroxethyl]piperazine-N-[2-ethanesulfonic acid]) Sodium Salt. Dissolve in ddH2O, adjust pH to 7.5, bring volume to 1 L. Filter at 0.1 μm. • 12. […] 100% DMSO (SIGMA) • 14. […] Beckman DU-650 w/ micro cell holders • 18. Beckman 4-position micro cell cuvette Procedure:
Prep Dilution Buffer (DB) for Enzyme (For 30 mL prep) • 1. DB final concentration is 2 mM DTT, 25 mM NaCl2, 5 mM MgCl2, 0.01% Tween-20, and 50 mM HEPES buffer, pH 7.5. • 2. Make up 50 mM HEPES by adding 1.5 mL 1 M HEPES into 28.1 mL of ddH2O. Add rest of the reagents. Into 50 mL conical vial, add 60 μL of 1M DTT, 150 μL 5M NaCl2, 150 μL 1M MgCl2, and 30 μL of 10% Tween-20 to give total volume of 30 mL. • 3. Vortex for 5-10 seconds. • 4. Aliquot out DB at 1 mL/tube and label tubes as “DB HGFR” • 5. Note: This can be prepared and stored ahead of time. • 6. Freeze un-used aliquots in microcentrifuge tubes at −20° C. freezer.
Prep Compounds • 1. For compound dilution plate, add 4 μL of 10 mM stock into column 1 of plate, and bring volume to 100 μL with 100% DMSO. • 2. Set up the Precision 2000 dilution method. A final concentration of 200 μM compound in 50% DMSO, 100 mM HEPES (1:2 serial dilution).
Prep Coupled Enzymatic Buffer:
1. Final concentration in assay:
• 2. For a 10 mL reaction buffer add 10 μL of 1M PEP, 33 μL of 100 mM NADH, 50 μL of 4M MgCl2, 20 μL of 1M DTT, 6 μL of 500 mM ATP, and […] of 10 mM Met-2 peptide into 100 mM HEPES buffer pH 7.5 and vortex/mix. • 3. Add coupling enzymes, LDH and PK, into reaction mix. Mix by gentle inversion.
1. Spectrophotometer settings:
• 2. Add 85 μL of CE reaction mix into each well of assay plate. • 3. Add 5 μL of diluted compound into a well of the assay plate. • 4. Add 5 μL of 50% DMSO for negative control into last column of assay plate. • 5. Mix with multi-channel pipettor or orbital shaker. • 6. Pre-incubate for 10 minutes at 37° C. • 7. Add 10 μL of 500 nM HGFR to each well of assay plate; the final HGFR concentration is 50 nM in a total final volume of 100 μL. • 8. Measure activity for 10 minutes at λ=340 nm and 37° C.
Ki data were obtained using the HGFR Continuous-Coupled Spectrophotometric Assay, and IC50 data were obtained using the Cellular HGFR Autophosphorylation Assay, both of which are described above.

Sequence of HGFR (c-Met) (P08581 974-1390): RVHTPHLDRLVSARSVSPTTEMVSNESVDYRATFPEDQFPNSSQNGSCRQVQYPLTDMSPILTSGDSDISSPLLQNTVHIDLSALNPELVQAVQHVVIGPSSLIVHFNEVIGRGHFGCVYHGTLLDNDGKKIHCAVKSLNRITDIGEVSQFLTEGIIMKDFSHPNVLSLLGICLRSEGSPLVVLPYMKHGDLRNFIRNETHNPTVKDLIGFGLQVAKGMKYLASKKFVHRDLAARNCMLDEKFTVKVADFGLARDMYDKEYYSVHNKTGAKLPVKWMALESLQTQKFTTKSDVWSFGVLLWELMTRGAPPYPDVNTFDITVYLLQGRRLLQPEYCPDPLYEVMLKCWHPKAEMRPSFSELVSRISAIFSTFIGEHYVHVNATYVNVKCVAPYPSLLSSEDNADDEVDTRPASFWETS

| SMILES | Ki [nM] | inhibition at 1 µM [%] |
| --- | --- | --- |
| CCN(CCO)C(=O)c1ccc(-c2cnc(N)c(OC(C)c3c(Cl)ccc(F)c3Cl)c2)cc1 (centres unmarked) [Example 1, 4-{6-Amino-5-[1-(2,6-dichloro-3-fluorophenyl)ethoxy]-pyridin-3-yl}N-ethyl-N-(2-hydroxyethyl)benzamide] | 39 | 94 |
| CC(Oc1cc(-c2ccc(C(=O)N(C)CCC#N)cc2)cnc1N)c1c(Cl)ccc(F)c1Cl (centres unmarked) [Example 2, 4-{6-Amino-5-[1-(2,6-dichloro-3-fluorophenyl)ethoxy]pyridin-3-yl}-N-(2-cyanoethyl)-N-methylbenzamide] | 33 | 95 |
| CC(C)NC(=O)CN1CCN(C(=O)c2ccc(-c3cnc(N)c(OC(C)c4c(Cl)ccc(F)c4Cl)c3)cc2)CC1 (centres unmarked) [Example 3, 2-[4-(4-{6-Amino-5-[1-(2,6-dichloro-3-fluorophenyl)ethoxy]pyridin-3-yl}benzoyl)piperazin-1-yl]-N-isopropylacetamide] | 26 | – |
| COCCN1CCN(C(=O)c2ccc(-c3cnc(N)c(OC(C)c4c(Cl)ccc(F)c4Cl)c3)cc2)CC1 (centres unmarked) [Example 4] | 44 | 95 |
| CC(Oc1cc(-c2ccc(C(=O)N3CCS(=O)(=O)CC3)cc2)cnc1N)c1c(Cl)ccc(F)c1Cl (centres unmarked) [Example 5, 3-[1-(2,6-Dichloro-3-fluorophenyl)ethoxy]-5-{4-[(1,1-dioxidothiomorpholin-4-yl)carbonyl]phenyl)pyridine-2-amine] | 31 | 96 |
| CC(Oc1cc(-c2ccc(C(=O)N3CCC(N(C)C)CC3)cc2)cnc1N)c1c(Cl)ccc(F)c1Cl (centres unmarked) [Example 6] | 24 | 95 |
| CC(Oc1cc(-c2ccc(C(=O)N3CCN(C4CCN(C)CC4)CC3)cc2)cnc1N)c1c(Cl)ccc(F)c1Cl (centres unmarked) [Example 7, 3-[1-(2,6-Dichloro-3-fluorophenyl)ethoxy]-5-(4-{[4-(1-methylpiperidin-4-yl)piperazin-1-yl]carbonyl)phenyl)pyridin-2-amine] | 26 | 96 |
| CC(Oc1cc(-c2ccc(C(=O)N3CC[N@]4C[C@H]3C4)cc2)cnc1N)c1c(Cl)ccc(F)c1Cl (some centres unmarked) [Example 8, 5-[4-(1,4-Diazabicyclo[3.1.1]hept-4-ylcarbonyl)phenyl]-3-[1-(2,6-dichloro-3-fluorophenyl)ethoxy]pyridin-2-amine] | 20 | 94 |
| CNCCNC(=O)c1ccc(-c2cnc(N)c(OC(C)c3c(Cl)ccc(F)c3Cl)c2)cc1 (centres unmarked) [Example 9, 4-{6-Amino-5-[1-(2,6-dichloro-3-fluorophenyl)ethoxy]pyridin-3-yl}-N-[2-(methylamino)ethyl)benzamide] | 37 | 91 |
| CNCCCNC(=O)c1ccc(-c2cnc(N)c(OC(C)c3c(Cl)ccc(F)c3Cl)c2)cc1 (centres unmarked) [Example 10, 4-{6-Amino-5-[1-(2,6-dichloro-3-fluorophenyl)ethoxy]pyridin-3-yl}-N-[3-(methylamino)propyl)benzamide] | 37 | 89 |
| CC(Oc1cc(-c2ccc(C(=O)NCCCN)cc2)cnc1N)c1c(Cl)ccc(F)c1Cl (centres unmarked) [Example 11, 4-(6-Amino-5-[1-(2,6-dichloro-3-fluorophenyl)ethoxy]pyridin-3-yl}-N-(3-aminopropyl) benzamide] | 45 | 86 |
| CC(Oc1cc(-c2ccc(C(=O)NC3CCNCC3)cc2)cnc1N)c1c(Cl)ccc(F)c1Cl (centres unmarked) [Example 12, 4-{6-Amino-5-[1-(2,6-dichloro-3-fluorophenyl)ethoxy]pyridin-3-yl}-N-piperidin-4-ylbenzamide] | 41 | 86 |

The next lines start with the values.

| Ki [nM] | inhibition at 1 µM [%] | SMILES |
| --- | --- | --- |
| 48 | 87 | CC(Oc1cc(-c2ccc(C(=O)NCC3CCNCC3)cc2)cnc1N)c1c(Cl)ccc(F)c1Cl (centres unmarked) [Example 13, 4-{6-Amino-5-[1-(2,6-dichloro-3-fluorophenyl)ethoxy]pyridin-3-yl}-N-(piperidin-4-ylmethyl)benzamide] |
| 71 | 85 | CC(Oc1cc(-c2ccc(C(=O)NCC3CCNC3)cc2)cnc1N)c1c(Cl)ccc(F)c1Cl (centres unmarked) [Example 15, 4-{6-Amino-5-[1-(2,6-dichloro-3-fluorophenyl)ethoxy]pyridin-3-yl}-N-(pyrrolidin-3-ylmethyl)benzamide] |
| 44 | 91 | CC(Oc1cc(-c2ccc(C(=O)NC3CCCNC3)cc2)cnc1N)c1c(Cl)ccc(F)c1Cl (centres unmarked) [Example 16, 4-{6-Amino-5-[1-(2,6-dichloro-3-fluorophenyl)ethoxy]pyridin-3-yl}-N-piperidin-3-ylbenzamide] |
| 68 | 90 | CC(Oc1cc(-c2ccc(C(=O)NCCN)cc2)cnc1N)c1c(Cl)ccc(F)c1Cl (centres unmarked) [Example 17, 4-{6-Amino-5-[1-(2,6-dichloro-3-fluorophenyl)ethoxy]pyridin-3-yl}N-(2-aminoethyl) benzamide] |
| 36 | 90 | CCNCCNC(=O)c1ccc(-c2cnc(N)c(OC(C)c3c(Cl)ccc(F)c3Cl)c2)cc1 (centres unmarked) [Example 18, 4-{6-Amino-5-[1-(2,6-dichloro-3-fluorophenyl)ethoxy]pyridin-3-yl}-N-[2-(ethylamino)ethyl]benzamide] |
| 46 | 93 | CC(Oc1cc(-c2ccc(C(=O)N3CCC4(CCNCC4)C3)cc2)cnc1N)c1c(Cl)ccc(F)c1Cl (centres unmarked) [Example 19, 5-[4-(2,8-Diazaspiro[4.5]dec-2-ylcarbonyl)phenyl]-3-[1-(2,6-dichloro-3-fluorophenyl)ethoxy]pyridin-2-amine] |
| 26 | 93 | CC(Oc1cc(-c2ccc(C(=O)N3CC4CNCC4C3)cc2)cnc1N)c1c(Cl)ccc(F)c1Cl (centres unmarked) [Example 20, 3-[1-(2,6-Dichloro-3-fluorophenyl)ethoxy]-5-[4-(hexahydropyrrolo[3,4-c]pyrrrol-2 (1H)-ylcarbonyl)phenyl]pyridin-2-amine] |
| 27.2 | – | COc1cc(-c2cnc(N)c(OC(C)c3c(Cl)ccc(F)c3Cl)c2)ccc1C(=O)N1C[C@@H](C)N[C@@H](C)C1 (stereo partly drawn) [Example 23, 3-[1-(2,6-dichloro-3-fluorophenyl)ethoxy]-5-(4-{[(3R,5S)-3,5-dimethylpiperazin-1-yl]carbonyl}-3-methoxyphenyl)pyridin-2-amine] |
| 1030 | – | COc1cc(-c2cnc(N)c(OC(C)c3c(Cl)ccc(F)c3Cl)c2)ccc1C(=O)N1CCCCC1 (centres unmarked) [Example 24, 3-[1-(2,6-dichloro-3-fluorophenyl)ethoxy]-5-[3-methoxy-4-(piperidin-1-ylcarbonyl)phenyl]pyridin-2-amine] |
| 87.7 | – | CC(Oc1cc(-c2ccc(-c3ccno3)cc2)cnc1N)c1c(Cl)ccc(F)c1Cl (centres unmarked) [Example 25, 3-[1-(2,6-dichloro-3-fluorophenyl)ethoxy]-5-(4-isoxazol-5-ylphenyl)pyridin-2-amine] |
| 79.5 | – | COc1cc(-c2cnc(N)c(OC(C)c3c(Cl)ccc(F)c3Cl)c2)ccc1CO (centres unmarked) [Example 26, (4-{6-amino-5-[1-(2,6-dichloro-3-fluorophenyl)ethoxy]pyridin-3-yl}-2-methoxyphenyl) methanol] |
